In ChEMBL document CHEMBL3286148, “Aminoazabenzimidazoles, a novel class of orally active antimalarial agents” (J Med Chem, 2014):
pIC50: −log10 of the molar value. ≈ marks a conversion by molar mass, not a printed value. Calls of active or inactive are those of the source. The rule behind the calls is not given here.

Legend:
[1] = Selectivity index, ratio of IC50 for human A549 cells to IC50 for Plasmodium falciparum; format: toxicity, cell-based; details: read-out: Ratio IC50
[2] = Clearance in mouse liver microsomes; format: ADME; details: read-out: CLH
Plasmodium falciparum [3] = assay: microbe, parasite or virus in culture; details: SB1, 72 h
Description: Antiplasmodial activity against Plasmodium falciparum SB1 after 72 hrs by SYBR I method

Plasmodium falciparum [4] = assay: Antiplasmodial activity against Plasmodium falciparum Dd2 harboring DHODH mutant; format: functional, organism-based
Plasmodium falciparum [5] = assay: microbe, parasite or virus in culture; details: NF54, 72 h
[6] = biological target: Voltage-gated inwardly rectifying potassium channel KCNH2 (Homo sapiens, UniProt Q12809); assay: Inhibition of human ERG
Voltage-gated inwardly rectifying potassium channel KCNH2, sequence (Q12809 whole entry): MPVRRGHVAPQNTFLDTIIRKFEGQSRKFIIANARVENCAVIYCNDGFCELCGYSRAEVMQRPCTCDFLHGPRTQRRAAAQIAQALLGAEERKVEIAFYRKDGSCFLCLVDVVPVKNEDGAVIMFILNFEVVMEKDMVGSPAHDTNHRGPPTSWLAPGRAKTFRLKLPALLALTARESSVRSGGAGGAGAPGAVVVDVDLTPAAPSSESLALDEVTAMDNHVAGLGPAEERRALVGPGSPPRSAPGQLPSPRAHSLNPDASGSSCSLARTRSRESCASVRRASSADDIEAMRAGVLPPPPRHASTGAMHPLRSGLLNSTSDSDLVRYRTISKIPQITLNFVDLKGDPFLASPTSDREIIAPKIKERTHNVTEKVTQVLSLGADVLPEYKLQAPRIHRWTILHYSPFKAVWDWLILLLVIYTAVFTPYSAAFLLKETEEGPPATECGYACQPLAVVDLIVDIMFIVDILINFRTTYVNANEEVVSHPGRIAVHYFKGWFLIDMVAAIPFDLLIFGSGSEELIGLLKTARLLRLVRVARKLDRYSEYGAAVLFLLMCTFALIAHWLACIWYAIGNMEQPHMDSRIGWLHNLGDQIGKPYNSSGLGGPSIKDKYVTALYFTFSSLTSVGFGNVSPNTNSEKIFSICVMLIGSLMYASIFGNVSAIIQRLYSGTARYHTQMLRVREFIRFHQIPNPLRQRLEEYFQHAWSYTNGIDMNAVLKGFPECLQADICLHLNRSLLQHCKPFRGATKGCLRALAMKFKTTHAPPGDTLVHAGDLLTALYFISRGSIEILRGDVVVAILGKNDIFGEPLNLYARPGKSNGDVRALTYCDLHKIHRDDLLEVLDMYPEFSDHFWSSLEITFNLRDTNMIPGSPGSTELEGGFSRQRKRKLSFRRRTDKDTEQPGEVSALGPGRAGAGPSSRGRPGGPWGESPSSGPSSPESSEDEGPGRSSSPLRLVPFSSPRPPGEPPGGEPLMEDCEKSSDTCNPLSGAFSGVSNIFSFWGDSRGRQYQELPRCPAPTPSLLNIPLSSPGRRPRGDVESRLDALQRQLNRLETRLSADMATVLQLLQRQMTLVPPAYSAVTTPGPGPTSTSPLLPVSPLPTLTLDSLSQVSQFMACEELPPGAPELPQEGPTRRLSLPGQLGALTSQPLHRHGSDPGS

[7] = Clearance in rat hepatocytes assessed per 1E6 cells; format: ADME, cell-based, Hepatocyte; details: read-out: CLH
Plasmodium falciparum [8] = assay: microbe, parasite or virus in culture; details: K1, 72 h
Plasmodium falciparum [9] = assay: microbe, parasite or virus in culture; details: Dd2, 72 h
Description: Antiplasmodial activity against Plasmodium falciparum Dd2 after 72 hrs by SYBR I method

Plasmodium falciparum [10] = assay: Antiplasmodial activity against chloroquine and pyrimethamine-sensitive Plasmodium falciparum 3D7A assessed as parasite reduction ratio at 10 times IC50 after 48 hrs; format: functional, organism-based
Plasmodium falciparum [11] = assay: microbe, parasite or virus in culture; details: W2, 72 h
Description: Antiplasmodial activity against Plasmodium falciparum W2 after 72 hrs by SYBR I method

Plasmodium falciparum [12] = assay: Antiplasmodial activity against Plasmodium falciparum Dd2 harboring CRT mutant; format: functional, organism-based
Plasmodium falciparum [13] = assay: microbe, parasite or virus in culture; details: 7G8, 72 h
Description: Antiplasmodial activity against Plasmodium falciparum 7G8 after 72 hrs by SYBR I method

Plasmodium falciparum [14] = assay: Antiplasmodial activity against Plasmodium falciparum Dd2 harboring HSP90 mutant; format: functional, organism-based
Plasmodium falciparum [15] = assay: Antiplasmodial activity against Plasmodium falciparum Dd2; format: functional, organism-based
[16] = Clearance in human liver microsomes; format: ADME; details: read-out: CLH
Plasmodium falciparum [17] = assay: Antiplasmodial activity against Plasmodium falciparum Dd2 harboring CYTb-Qi mutant; format: functional, organism-based
Cytochrome P450 3A4 = Cytochrome P450 3A4 (Homo sapiens, UniProt P08684); assay: Inhibition of CYP3A4 (unknown origin); format: ADME
Cytochrome P450 3A4, sequence (P08684 whole entry): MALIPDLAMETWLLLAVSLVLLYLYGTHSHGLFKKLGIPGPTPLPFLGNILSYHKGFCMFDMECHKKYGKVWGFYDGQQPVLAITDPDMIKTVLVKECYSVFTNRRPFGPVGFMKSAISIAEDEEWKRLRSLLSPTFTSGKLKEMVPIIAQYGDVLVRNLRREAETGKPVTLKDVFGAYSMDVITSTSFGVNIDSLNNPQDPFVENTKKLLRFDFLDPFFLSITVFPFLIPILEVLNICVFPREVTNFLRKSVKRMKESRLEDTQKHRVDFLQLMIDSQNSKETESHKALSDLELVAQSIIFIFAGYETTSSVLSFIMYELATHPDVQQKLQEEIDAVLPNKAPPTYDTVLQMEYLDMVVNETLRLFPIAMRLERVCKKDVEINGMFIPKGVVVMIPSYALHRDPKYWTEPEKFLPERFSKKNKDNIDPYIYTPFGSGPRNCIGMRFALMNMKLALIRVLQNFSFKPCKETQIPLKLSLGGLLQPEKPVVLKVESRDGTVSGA

Cytochrome P450 2C9 = Cytochrome P450 2C9 (Homo sapiens, UniProt P11712); assay: Inhibition of CYP2C9 (unknown origin); format: ADME
Cytochrome P450 2C9, sequence (P11712 whole entry): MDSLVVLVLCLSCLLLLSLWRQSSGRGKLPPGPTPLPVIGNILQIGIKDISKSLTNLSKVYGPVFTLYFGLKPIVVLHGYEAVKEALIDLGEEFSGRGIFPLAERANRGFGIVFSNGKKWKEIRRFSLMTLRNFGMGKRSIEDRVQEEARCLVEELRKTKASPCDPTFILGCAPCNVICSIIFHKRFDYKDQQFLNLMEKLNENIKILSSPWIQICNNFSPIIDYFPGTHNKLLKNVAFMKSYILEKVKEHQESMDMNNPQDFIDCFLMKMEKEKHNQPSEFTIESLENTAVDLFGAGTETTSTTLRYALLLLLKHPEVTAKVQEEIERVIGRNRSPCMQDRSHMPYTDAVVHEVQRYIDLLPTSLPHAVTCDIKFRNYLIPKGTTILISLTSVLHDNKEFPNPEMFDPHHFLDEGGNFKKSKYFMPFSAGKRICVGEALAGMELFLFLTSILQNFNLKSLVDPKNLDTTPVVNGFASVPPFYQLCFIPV

[18] = Lipophilicity, log D of the compound; format: physicochemical; details: octanol/water
Cytochrome P450 1A2 = biological target: T1, Cytochrome P450 1A2 (Homo sapiens, UniProt P05177); assay: Inhibition of CYP1A2 (unknown origin); format: ADME
T1 sequence (P05177 whole entry): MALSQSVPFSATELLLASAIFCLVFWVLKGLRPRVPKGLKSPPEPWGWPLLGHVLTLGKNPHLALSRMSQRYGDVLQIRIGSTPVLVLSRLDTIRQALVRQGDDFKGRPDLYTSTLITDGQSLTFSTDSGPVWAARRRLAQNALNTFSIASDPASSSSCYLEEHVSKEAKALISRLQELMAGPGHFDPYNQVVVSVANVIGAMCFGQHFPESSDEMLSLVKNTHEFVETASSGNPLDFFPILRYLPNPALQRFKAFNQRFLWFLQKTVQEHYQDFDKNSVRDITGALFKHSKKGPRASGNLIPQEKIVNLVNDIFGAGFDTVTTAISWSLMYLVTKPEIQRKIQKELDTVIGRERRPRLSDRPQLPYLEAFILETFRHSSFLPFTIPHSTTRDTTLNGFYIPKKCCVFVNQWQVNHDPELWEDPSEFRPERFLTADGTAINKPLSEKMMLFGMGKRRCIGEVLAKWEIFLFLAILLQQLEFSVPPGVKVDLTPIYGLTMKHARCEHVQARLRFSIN

Cytochrome P450 2D6 = Cytochrome P450 2D6 (Homo sapiens, UniProt P10635); assay: Inhibition of CYP2D6 (unknown origin); format: ADME
Cytochrome P450 2D6, sequence (P10635 whole entry): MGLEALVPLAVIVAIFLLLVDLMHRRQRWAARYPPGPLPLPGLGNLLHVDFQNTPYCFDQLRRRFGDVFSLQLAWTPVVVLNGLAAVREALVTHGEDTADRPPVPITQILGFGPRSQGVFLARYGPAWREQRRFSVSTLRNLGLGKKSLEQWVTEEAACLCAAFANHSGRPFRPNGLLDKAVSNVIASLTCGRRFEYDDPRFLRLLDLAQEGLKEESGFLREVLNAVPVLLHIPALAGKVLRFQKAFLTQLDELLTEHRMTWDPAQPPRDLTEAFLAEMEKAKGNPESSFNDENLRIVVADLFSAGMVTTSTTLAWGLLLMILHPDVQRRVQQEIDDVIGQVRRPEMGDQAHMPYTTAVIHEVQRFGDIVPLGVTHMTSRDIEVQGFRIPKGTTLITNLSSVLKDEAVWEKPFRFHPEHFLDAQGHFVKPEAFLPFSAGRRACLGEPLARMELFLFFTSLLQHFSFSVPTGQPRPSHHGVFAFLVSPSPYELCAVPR

[19] = Fraction unbound in human plasma; format: ADME, cell-free
[20] = Aqueous solubility of the compound; format: physicochemical; details: buffer
Cytochrome P450 2C19 = Cytochrome P450 2C19 (Homo sapiens, UniProt P33261); assay: Inhibition of CYP2C19 (unknown origin); format: ADME
Cytochrome P450 2C19, sequence (P33261 whole entry): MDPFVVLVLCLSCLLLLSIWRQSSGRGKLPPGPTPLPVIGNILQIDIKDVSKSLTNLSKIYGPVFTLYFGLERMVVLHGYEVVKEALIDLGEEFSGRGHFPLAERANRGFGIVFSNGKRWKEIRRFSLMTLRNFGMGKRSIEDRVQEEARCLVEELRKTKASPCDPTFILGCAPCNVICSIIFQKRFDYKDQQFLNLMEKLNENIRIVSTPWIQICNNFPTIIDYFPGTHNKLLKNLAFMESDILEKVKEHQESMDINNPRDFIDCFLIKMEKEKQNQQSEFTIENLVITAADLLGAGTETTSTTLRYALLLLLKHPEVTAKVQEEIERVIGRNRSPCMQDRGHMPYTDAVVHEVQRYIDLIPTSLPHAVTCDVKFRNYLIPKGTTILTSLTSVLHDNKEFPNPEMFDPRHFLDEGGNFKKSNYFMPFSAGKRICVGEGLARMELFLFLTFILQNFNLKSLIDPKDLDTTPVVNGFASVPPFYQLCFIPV

Compound: Nc1nc2ccc(OCC(F)(F)F)nc2n1CC(O)c1ccc(C(F)(F)F)cc1Cl (racemic)
- selectivity ratio [1]: 232
- microsomal CLint [2]: 21 µL/min/mg
- pIC50 (Plasmodium falciparum [3]): 6.75
- pIC50 (Plasmodium falciparum [4]): 7.71
- pIC50 (Plasmodium falciparum [5]): 7.37
- pIC50 [6]: < 4.48
- hepatocyte CLint [7]: 36 µL/min/1e6 cells
- pIC50 (Plasmodium falciparum [8]): 8.00
- pIC50 (Plasmodium falciparum [9]): 6.87
- Activity (Plasmodium falciparum [10]): Active
- pIC50 (Plasmodium falciparum [11]): 7.21
- pIC50 (Plasmodium falciparum [12]): 7.78
- pIC50 (Plasmodium falciparum [13]): 7.92
- pIC50 (Plasmodium falciparum [14]): 7.47
- pIC50 (Plasmodium falciparum [15]): 7.61
- microsomal CLint [16]: 45 µL/min/mg
- pIC50 (Plasmodium falciparum [17]): 7.93

Compound: Nc1nc2ccc(OC3CCOC3)nc2n1CC(O)c1ccc(C(F)(F)F)cc1Cl (racemic)
- selectivity ratio [1]: 800
- pIC50 (Cytochrome P450 3A4): 5.62
- microsomal CLint [2]: 90 µL/min/mg
- pIC50 (Cytochrome P450 2C9): < 4.52
- logD [18]: 3.7
- pIC50 (Cytochrome P450 1A2): < 4.52
- pIC50 (Plasmodium falciparum [5]): 7.60
- pIC50 [6]: 4.78
- pIC50 (Cytochrome P450 2D6): 4.90
- hepatocyte CLint [7]: 105 µL/min/1e6 cells
- pIC50 (Plasmodium falciparum [8]): 7.74
- fraction unbound [19]: 0.026
- Activity (Plasmodium falciparum [10]): Active
- solubility [20]: 160 µM (≈ 70.9 µg/mL)
- pIC50 (Cytochrome P450 2C19): 6.11
- microsomal CLint [16]: 76 µL/min/mg
